Experimental findings from patent US7390910B2, “Compounds for treating tumors” (priority 2003, dated 2008) are described below.

The inhibition is the drop in the measured response relative to a control, in per cent. A lower inhibition goes with little suppression. For orientation: IC50 means the concentration needed to halve the response being measured. Higher therefore signals a need for much substance.

Marks after values point to notes of the source that are not given here.

The subject of assay [1] is bovine microtubule-associated protein (MAP)-rich tubulin. The assay is classed as biochemical. On the procedure: Tubulin Polymerization Assays. For in vitro tubulin polymerization assays, bovine microtubule-associated protein (MAP)-rich tubulin, PEM buffer [80 mM Na-PIPES (pH 6.9), 1 mM MgCl2, and 1 mM EGTA], and GTP are purchased from Cytoskeleton (Denver, Colo.). MAP-rich tubulin (final concentration 1.5 mg/ml) is dissolved in cold PEM buffer containing 1 mM GTP (GPEM) and centrifuged at 12,000×g for 10 min at 4° C. The tubulin solution (100 μl/well) is added rapidly to wells of a low-volume, 96-well plate already containing duplicate aliquots (10 μl) of test compounds in GPEM. […] Control wells contained the same final concentration of DMSO (0.3%). After initiation of the reaction, absorbance at 340 nm is measured every minute for 60 min at 24° C. using a SpectraMax Plus plate reader (Molecular Devices, Sunnyvale, Calif.).

The next assay relates to KB cells. Nature of the assay: cells. The assay is classed as cell-based. Particulars: for inhibition at 3 µM: 3000 nM; for IC50: 3 days, SRB. On the procedure: (§1) Cell Survival Assay: Standard Pharmacological Test Procedure. […] Compounds are incubated with cells for 3 days.
The subject of the next assay is KB85. Kind of assay: cells. The assay is classed as cell-based. Particulars: for inhibition at 3 µM: 3000 nM; for IC50: 3 days, SRB. On the procedure:
as §1

A further assay concerns KBV1. Kind of assay: cells. The assay is classed as cell-based. The settings on record: for inhibition at 3 µM: KB-V1, 3000 nM; for IC50: 3 days, SRB. On the procedure:
as §1

Consider `CCOS(=O)(=O)/C=C/[C@H](C(C)C)N(C)C(=O)[C@@H](NC(=O)[C@@H](NC)C(C)(C)c1ccccc1)C(C)(C)C` [Example 63, N,β,β-trimethyl-L-phenylalanyl-N^1-[(1S,2E)-3-(ethoxysulfonyl)-1-isopropylprop-2-enyl]-N^1,3-dimethyl-L-valinamide], for which, in assay [1], the “Tubulin Polym. % inhibition at 0.3 uM” value is 42%. In addition, the inhibition at 3 µM in the assay on KB cells (Homo sapiens, 72 h) was determined as 1%; in the assay with KB85, 0%; with KBV1 (Homo sapiens), 0%.

As for `CN[C@H](C(=O)N[C@H](C(=O)N(C)[C@@H](/C=C(\C)C(=O)OCc1ccc(OCc2ccccc2)cc1)C(C)C)C(C)(C)C)C(C)(C)c1ccccc1` [Example 54, N,β,β-trimethyl-L-phenylalanyl-N^1-((1R,2E)-4-{[4-(benzyloxy)benzyl]oxy}-1-isopropyl-3-methyl-4-oxobut-2-enyl)-N^1,3-dimethyl-L-valinamide], in assay [1], the “Tubulin Polym. % inhibition at 0.3 uM” value was 55%. Further, the IC50 with KB cells (Homo sapiens, KB, 72 h) amounted to 136 nM; with KB85 (72 h) it was 846 nM. 3 µM produced 8% inhibition with KBV1 (Homo sapiens).

On to `CN[C@H](C(=O)N[C@H](C(=O)N(C)[C@H](/C=C(\C)C(=O)N1CCC[C@H]1C(=O)O)C(C)C)C(C)(C)C)C(C)(C)C1CCCCC1` [Example 46, 3-cyclohexyl-N-methyl-L-valyl-N^1-{(1S,2E)-4-[(2S)-2-carboxypyrrolidin-1-yl]-1-isopropyl-3-methyl-4-oxobut-2-enyl}-N^1,3-dimethyl-L-valinamide], for which the “Tubulin Polym. % inhibition at 0.3 uM” value in assay [1] was 99%. For the same compound, the IC50 in the assay with KB cells (Homo sapiens, KB, 72 h) is 450 nM; in the assay with KB85 (72 h) it was 1720 nM. In the assay on KBV1 (Homo sapiens), this compound gave an inhibition at 3 µM of 1%.

As to `CN[C@H](C(=O)N[C@H](C(=O)N(C)[C@H](/C=C(\C)C(=O)N1CCC[C@H]1C(=O)OC)C(C)C)C(C)(C)C)C(C)(C)c1cccc(Cl)c1` [Example 23, 3-Chloro-N,β,β-trimethyl-L-phenylalanyl-N^1-{(1S,2E)-4-[(2S)-2-(methoxycarbonyl)pyrrolidin-1-yl]-1-isopropyl-3-methyl-4-oxobut-2-enyl}-N^1,3-dimethyl-L-valinamide], in assay [1], the “Tubulin Polym. % inhibition at 0.3 uM” value turned out to be 88%. The half-maximal inhibitory concentration (IC50) is 2.5 nM with KB cells (Homo sapiens, KB, 72 h); 6.2 nM with KB85 (72 h); 362 nM with KBV1 (Homo sapiens, KB-V1, 72 h).

For `CN[C@H](C(=O)N[C@H](C(=O)N(C)[C@H](/C=C(\C)C(=O)N1CCN(C)CC1)C(C)C)C(C)(C)C)C(C)(C)c1cc(C)cc(C)c1` [Example 8, N,β,β,3,5-Pentamethyl-L-phenylalanyl-N^1-[(1S,2E)-1-isopropyl-3-methyl-4-(4-methylpiperazin-1-yl)-4-oxobut-2-enyl]-N^1,3-dimethyl-L-valinamide], the “Tubulin Polym. % inhibition at 0.3 uM” value in assay [1] came to 68%. The half-maximal inhibitory concentration (IC50) came to 35 nM in the assay on KB cells (Homo sapiens, KB, 72 h); 56 nM in the assay with KB85 (72 h); 1620 nM with KBV1 (Homo sapiens, KB-V1, 72 h).

Turning to `CN[C@H](C(=O)N[C@H](C(=O)N(C)[C@H](/C=C(\C)C(=O)N1CCC[C@H]1[C@H](OC)[C@@H](C)C(=O)NCCc1ccccc1)C(C)C)C(C)(C)C)C(C)(C)c1ccccc1` [Example 31, N-methyl-3-phenyl-L-valyl-N^1— [(1S,2E)-1-isopropyl-4-((2S)-2-{(1R,2R)-1-methoxy-2-methyl-3-oxo-[(2-phenethyl)amino]propyl}pyrrolidin-1-yl)-3-methyl-4-oxobut-2-enyl]-N^1,3-dimethyl-L-valinamide], in assay [1], the “Tubulin Polym. % inhibition at 0.3 uM” value is reported as 69%. In addition, the 50% inhibitory concentration (IC50) in the assay with KB cells amounted to 0.9 nM; in the assay with KB85 it was 5.1 nM; in the assay with KBV1, 191 nM.

Take `CN[C@H](C(=O)N[C@H](C(=O)N(C)[C@H](/C=C(\C)[C@H](O)c1ccccc1)C(C)C)C(C)(C)C)C(C)(C)c1ccccc1` [Example 76, N,β,β-trimethyl-L-phenylalanyl-N-1-[(1S,2E,4S)-4-hydroxy-1-isopropyl-3-methyl-4-phenylbut-2-enyl}-N-1,3-dimethyl-L-valinamide]: the “Tubulin Polym. % inhibition at 0.5 uM” value in assay [1] (0.5 uM) was 63*** %. The IC50 was 16 nM with KB cells, 22 nM in the assay with KB85 and 190 nM in the assay with KBV1.

For `CN[C@H](C(=O)N[C@H](C(=O)N(C)[C@H](/C=C(\C)C(=O)c1ncc[nH]1)C(C)C)C(C)(C)C)C(C)(C)c1ccccc1` [Example 88, (2S)-N-[(1S,2E)-4-(1H-imidazol-2-yl)-1-isopropyl-3-methyl-4-oxobut-2-enyl]- -trimethyl-2-{[(2S)-3-methyl-2-(methylamino)-3-phenylbutanoyl]amino}butanamide], in assay [1], the “Tubulin Polym. % inhibition at 0.3 uM” value turned out to be 91%. Also, the results for the IC50 with KB cells and with KB85 were 218 nM and 1360 nM, respectively. In addition, the “KBV1 % inhibition @ 3000 nM” value in the assay with KBV1 (3000 nM) came to 0%.

For `CN[C@H](C(=O)N[C@H](C(=O)N(C)[C@H](/C=C(\C)P(=O)(O)O)C(C)C)C(C)(C)C)C(C)(C)c1ccccc1` [Example 72, N,β,β-trimethyl-L-phenylalanyl-N^1-[(1S,2E)-1-isopropyl-3-phosphonobut-2-enyl]-N^1,3-dimethyl-L-valinamide], the “Tubulin Polym. % inhibition at 0.3 uM” value in assay [1] is 53%. Also, the inhibition at 3 µM is 0% with KB cells (Homo sapiens, 72 h); 0% in the assay on KB85; 4% in the assay with KBV1 (Homo sapiens).

Regarding `CN[C@H](C(=O)N[C@H](C(=O)N(C)[C@H](/C=C(\C)C(=O)N1CCC[C@H]1C(=O)OC)C(C)C)C(C)(C)C)C(C)(C)c1cccc(C)c1` [Example 21, N,β,β,3-Tetramethyl-L-phenylalanyl-N^1-{(1S,2E)-4-[(2S)-2-(methoxycarbonyl)pyrrolidin-1-yl]-1-isopropyl-3-methyl-4-oxobut-2-enyl}-N^1,3-dimethyl-L-valinamide], the “Tubulin Polym. % inhibition at 0.3 uM” value in assay [1] is recorded as 89%. Further, the IC50 in the assay on KB cells (Homo sapiens, KB, 72 h) is 1.6 nM; with KB85 (72 h), 6.2 nM; in the assay on KBV1 (Homo sapiens, KB-V1, 72 h) it was 275 nM.

With `CN[C@H](C(=O)N[C@H](C(=O)N(C)[C@H](/C=C(\C)C(=O)N1CCOCC1)C(C)C)C(C)(C)C)C(C)(C)c1cc(C)cc(C)c1` [Example 3, N,β,β,3,5-Pentamethyl-L-phenylalanyl-N^1-[(1S,2E)-1-isopropyl-3-methyl-4-morpholin-4-yl-4-oxobut-2-enyl]-N^1,3-dimethyl-L-valinamide], the “Tubulin Polym. % inhibition at 0.3 uM” value in assay [1] is 51%. For the same compound, the IC50 in the assay with KB cells (Homo sapiens, KB, 72 h) came out at 70 nM; with KB85 (72 h), 176 nM; with KBV1 (Homo sapiens, KB-V1, 72 h), 1760 nM.

For the compound `CN[C@H](C(=O)N[C@H](C(=O)N(C)[C@H](/C=C(\C)C(=O)O)C(C)C)C(C)(C)C)c1ccccc1` [Example 57, (2E,4S)-2,5-dimethyl-4-(methyl{3-methyl-N-[(2S)-2-(methylamino)-2-phenylethanoyl]-L-valyl}amino)-2-hexenoic acid], the “Tubulin Polym. % inhibition at 0.3 uM” value in assay [1] is on record as 75%. Further, the half-maximal inhibitory concentration (IC50) in the assay on KB cells (Homo sapiens, KB, 72 h) came out at 1760 nM; with KB85 (72 h), 2610 nM. The same compound gave an inhibition at 3 µM in the assay with KBV1 (Homo sapiens) of 7%.

For the compound `CN[C@H](C(=O)N[C@H](C(=O)N(C)[C@H](/C=C(\C)CO)C(C)C)C(C)(C)C)C(C)(C)c1ccccc1` [Example 81], the “Tubulin Polym. % inhibition at 0.3 uM” value in assay [1] is 71%. The IC50 with KB cells came out at 454 nM; in the assay with KB85, 447 nM; with KBV1, 1590 nM.

On to `CN[C@H](C(=O)N[C@H](C(=O)N(C)[C@H](/C=C(\C)C(=O)N1CCC[C@H]1C(=O)O)C(C)C)C(C)(C)C)C(C)(C)c1ccc(C)c(C)c1` [Example 18, N,β,β,3,4-Pentamethyl-L-phenylalanyl-N^1-{(1S,2E)-4-[(2S)-2-carboxypyrrolidin-1-yl]-1-isopropyl-3-methyl-4-oxobut-2-enyl}-N^1,3-dimethyl-L-valinamide], for which, in assay [1], the “Tubulin Polym. % inhibition at 0.3 uM” value stood at 76%. Moreover, the IC50 was 74 nM in the assay on KB cells (Homo sapiens, KB, 72 h) and 519 nM with KB85 (72 h). The inhibition at 3 µM in the assay on KBV1 (Homo sapiens) came out at 6%.

For the compound `CN[C@H](C(=O)N[C@H](C(=O)N(C)[C@H](/C=C1/C(=O)NC(=O)N1C)C(C)C)C(C)(C)C)C(C)(C)c1ccccc1` [Example 89, N,β,β-trimethyl-L-phenylalanyl-N^1,3-dimethyl-N^1-{(1S)-2-methyl-1-[(Z)-(3-methyl-2,5-dioxoimidazolidin-4-ylidene)methyl]propyl}-L-valinamide], the “Tubulin Polym. % inhibition at 0.3 uM” value in assay [1] came out at 95%. Besides, the concentration for half-maximal inhibition (IC50) with KB cells (Homo sapiens, KB, 72 h) came to 5.1 nM; with KB85 (72 h) it was 9.9 nM; with KBV1 (Homo sapiens, KB-V1, 72 h) it was 230 nM.

As to `CN[C@H](C(=O)N[C@H](C(=O)N(C)[C@H](/C=C(\C)C(=O)N1CCN(CCCN(C)C)CC1)C(C)C)C(C)(C)C)C(C)(C)c1ccccc1` [Example 38, N,β,β-trimethyl-L-phenylalanyl-N^1-((1S,2E)-4-{4-[3-(dimethylamino)propyl]piperazin-1-yl}-1-isopropyl-3-methyl-4-oxobut-2-enyl)-N^1,3-dimethyl-L-valinamide], the “Tubulin Polym. % inhibition at 0.3 uM” value in assay [1] worked out at 75%. Moreover, the IC50 in the assay with KB cells (Homo sapiens, KB, 72 h) came out at 20 nM; in the assay on KB85 (72 h), 529 nM. Moreover, in the assay on KBV1 (Homo sapiens), 3 µM produced 0% inhibition.

For the compound `CN[C@H](C(=O)N[C@H](C(=O)N(C)[C@H](/C=C/P(=O)(OC)OC)C(C)C)C(C)(C)C)C(C)(C)c1ccccc1` [Example 68, N,β,β-trimethyl-L-phenylalanyl-N^1-[(1S,2E)-3-(dimethoxyphosphoryl)-1-isopropylprop-2-enyl]-N^1,3-dimethyl-L-valinamide], the “Tubulin Polym. % inhibition at 0.3 uM” value in assay [1] is 45%. The IC50 with KB cells (Homo sapiens, KB, 72 h) was determined as 1980 nM; in the assay with KB85 (72 h), 2080 nM. Besides, in the assay on KBV1 (Homo sapiens), the inhibition at 3 µM was found to be 8%.
